Laboratory results published in patent publication US7662863B2, “Therapeutic agent for the use in reducing alcohol intoxication and reducing or eliminating the negative side effects associated with alcohol ingestion” (priority 2003, dated 2010).

Assays:
[1] = Blood alcohol level (BAC test strip) in human subjects after alcohol consumption, glucarate versus placebo; type: in vivo; conditions: twenty subjects
From the text: (§1) Twenty subjects, currently taking no form of d-glucarate, were recruited for the evaluation. On two separate occasions (at least 5 days apart) the subjects voluntarily consumed alcoholic beverages. The amount ingested was at their discretion, however it was the exact same about on both occasions and roughly over the same duration (+/−½ hour).
(§2) On the first occasion, the subject was asked to take a placebo, while on the second occasion the subject was asked to take d-glucarate. The subjects were not informed what they were taking on either occasion, or of the difference between the placebo and chemical compound.
On the first occasion the placebo was administered prior to alcohol ingestion, after alcohol ingestion then 8 hours following ingestion.
A BAC was used to determine the Blood alcohol level after consumption then 8 hours later.
(§3) On the second occasion 1000 mg of Potassium Hydrogen Glucarate was administered before alcohol consumption, then 500 mg after alcohol consumption, then 1000 mg 8 hours later.
A BAC test strip was used to determine the Blood alcohol level after consumption then 8 hours later.

hangover symptoms = assay: Subject questionnaire on hangover symptoms and overall feelings after alcohol consumption, glucarate versus placebo; type: in vivo, human; conditions: twenty subjects, questionnaire 12-14 hours after each occasion
From the text: as §1, §2, §3
Referring to FIG. 2, 12-14 hours after each occasion the subjects filled out the questionnaire to reflect each subject's observation of hangover symptoms. A 1 on the scale represents the most severe of symptoms, and a 5 represents neutral feeling or no symptom. The black circle indicates the average on the 20 subjects studied.
Referring to FIG. 3, the last parameter measured was the subjects overall feelings, a rating of 1 being the most unpleasant to a rating of 5 representing the most pleasant of each subject's typical feeling.

## O=C(O)[C@@H](O)[C@@H](O)[C@H](O)[C@@H](O)C(=O)[O-].[K+] [glucarate compound, Potassium Hydrogen Glucarate]
[1]; after rest and a duration of 8 hours, 1000 mg before and 500 mg after alcohol consumption
  decrease in the total level of recirculating alcohol relative to a placebo: 55%
[1]; immediately after alcohol consumption, 1000 mg before alcohol consumption, oral
  reduction in the amount of alcohol recirculating within the blood stream relative to a placebo: 18%
Hangover symptoms
  hangover symptoms and overall feelings, average index on scale 1-5: reduced the subjects' hangover tendencies
